Measured values from US10765114B2, “4-amino-6-(pyridyl and 2-substitutedphenyl)-picolinates and 6-amino-2-(pyridyl and 2-substitutedphenyl)-pyrimidine-4-carboxylates and their use as herbicides” (Dow AgroSciences LLC, priority 2013, dated 2020).
Read-outs that look alike come from different tables or passages of the source.

Experiments:
[1] = tested on: Key Broadleaf Weed and Crop Species; test: Post-Emergent Test II (Table 5); assay type: in vivo; conditions: post-emergence, 336 h; for pest or weed control at 70 g/ha: application rate 70 (kg ai/ha; footnote: g ai/ha); for pest or weed control at 140 g/ha: application rate 140 (kg ai/ha; footnote: g ai/ha)
Procedure, shortened: (§1)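 Growth stage at treatment: first or second true leaf. Application: compound in acetone/DMSO diluted into an adjuvant-containing aqueous mix, sprayed at 187 L/ha at several rates. Assessment: visual 0-100% injury at 14 days against untreated plants.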

[2] = tested on: Key Grass and Sedge Weeds as well as Grass Crops; test: Post-Emergent Test II (Table 6); assay type: in vivo; conditions: post-emergence, 336 h, 14 days after application; for pest or weed control at 70 g/ha: 70 g ai/ha; for pest or weed control at 140 g/ha: 140 g ai/ha
Procedure, shortened: as §1

[3] = Abutilon theophrasti, ABUTH: velvetleaf (Abutilon theophrasti), read-out: Visual Growth Reduction (%) 14 Days After Application ABUTH
[4] = Amaranthus retroflexus, AMARE: redroot pigweed (Amaranthus retroflexus), read-out: Visual Growth Reduction (%) 14 Days After Application AMARE
[5] = Brassica napus, BRSSS: oilseed rape, canola (Brassica napus), read-out: Visual Growth Reduction (%) 14 Days After Application BRSSS
[6] = Chenopodium album, CHEAL: lambsquarters (Chenopodium album), read-out: Visual Growth Reduction (%) 14 Days After Application CHEAL
[7] = Euphorbia heterophylla, EPHHL: wild poinsettia (Euphorbia heterophylla), read-out: Visual Growth Reduction (%) 14 Days After Application EPHHL
[8] = Helianthus annuus, HELAN: sunflower (Helianthus annuus), read-out: Visual Growth Reduction (%) 14 Days After Application HELAN
[9] = Viola tricolor, VIOTR: wild pansy (Viola tricolor), read-out: Visual Growth Reduction (%) 14 Days After Application VIOTR
[10] = CYPSS, read-out: Visual Growth Reduction (%) 14 Days After Application CYPSS
[11] = DIGSA: crabgrass (Digitaria sanguinalis), read-out: Visual Growth Reduction (%) 14 Days After Application DIGSA
[12] = ECHSS, read-out: Visual Growth Reduction (%) 14 Days After Application ECHSS
[13] = ORYSS (crop), read-out: Visual Growth Reduction (%) 14 Days After Application ORYSS
[14] = SETFA: giant foxtail (Setaria faberi), read-out: Visual Growth Reduction (%) 14 Days After Application SETFA
[15] = SORVU: grain sorghum (Sorghum vulgare), read-out: Visual Growth Reduction (%) 14 Days After Application SORVU
[16] = TRZSS (crop), read-out: Visual Growth Reduction (%) 14 Days After Application TRZSS
[17] = ZEAMX: maize, corn (Zea mays), read-out: Visual Growth Reduction (%) 14 Days After Application ZEAMX

| SMILES | pest or weed control at 70 g/ha [1, 3] [%] | pest or weed control at 140 g/ha [1, 3] [%] | pest or weed control at 70 g/ha [1, 4] [%] | pest or weed control at 140 g/ha [1, 4] [%] | pest or weed control at 70 g/ha [1, 5] [%] | pest or weed control at 140 g/ha [1, 5] [%] | pest or weed control at 70 g/ha [1, 6] [%] | pest or weed control at 140 g/ha [1, 6] [%] | pest or weed control at 70 g/ha [1, 7] [%] | pest or weed control at 140 g/ha [1, 7] [%] | pest or weed control at 70 g/ha [1, 8] [%] | pest or weed control at 140 g/ha [1, 8] [%] | pest or weed control at 70 g/ha [1, 9] [%] | pest or weed control at 140 g/ha [1, 9] [%] | pest or weed control at 70 g/ha [2, 10] [%] | pest or weed control at 140 g/ha [2, 10] [%] | pest or weed control at 70 g/ha [2, 11] [%] | pest or weed control at 140 g/ha [2, 11] [%] | pest or weed control at 70 g/ha [2, 12] [%] | pest or weed control at 140 g/ha [2, 12] [%] | also measured |
| --- | --- | --- | --- | --- | --- | --- | --- | --- | --- | --- | --- | --- | --- | --- | --- | --- | --- | --- | --- | --- | --- |
| COc1nc(C(F)(F)F)ccc1-c1nc(C(=O)O)c(Cl)c(N)c1F [Compound 2, 4-amino-5-chloro-3-fluoro-2′-methoxy-6′-(trifluoromethyl)-[2,3′-bipyridine]-6-carboxylic acid] | 0 to 29 | 0 to 29 | 0 to 29 | 0 to 29 | 30 to 44 | 45 to 59 | 0 to 29 | 0 to 29 | 0 to 29 | 0 to 29 | 60 to 74 | 60 to 74 | 0 to 29 | 0 to 29 | 0 to 29 | 0 to 29 | 0 to 29 | 0 to 29 | 0 to 29 | 0 to 29 | pest or weed control at 70 g/ha [2, 13]: 0 to 29%; pest or weed control at 140 g/ha [2, 13]: 0 to 29%; pest or weed control at 70 g/ha [2, 14]: 0 to 29%; pest or weed control at 140 g/ha [2, 14]: 0 to 29%; pest or weed control at 70 g/ha [2, 15]: 0 to 29%; pest or weed control at 140 g/ha [2, 15]: 0 to 29%; pest or weed control at 70 g/ha [2, 16]: 0 to 29%; pest or weed control at 140 g/ha [2, 16]: 0 to 29%; pest or weed control at 70 g/ha [2, 17]: 0 to 29%; pest or weed control at 140 g/ha [2, 17]: 0 to 29%; melting point: 133 to 134 °C |
| Cc1c(-c2cc(N)c(Cl)c(C(=O)O)n2)ccc(Cl)c1F [Compound 52] | 95 to 100 | 95 to 100 | 95 to 100 | 95 to 100 | 95 to 100 | 95 to 100 | 95 to 100 | 95 to 100 | 75 to 84 | 85 to 94 | 95 to 100 | 95 to 100 | 85 to 94 | 85 to 94 | 85 to 94 | 95 to 100 | 0 to 29 | 30 to 44 | 30 to 44 | 45 to 59 | pest or weed control at 70 g/ha [2, 13]: 0 to 29%; pest or weed control at 140 g/ha [2, 13]: 0 to 29%; pest or weed control at 70 g/ha [2, 14]: 0 to 29%; pest or weed control at 140 g/ha [2, 14]: 45 to 59%; pest or weed control at 70 g/ha [2, 15]: 0 to 29%; pest or weed control at 140 g/ha [2, 15]: 30 to 44%; pest or weed control at 70 g/ha [2, 16]: 45 to 59%; pest or weed control at 140 g/ha [2, 16]: 60 to 74%; pest or weed control at 70 g/ha [2, 17]: 45 to 59%; pest or weed control at 140 g/ha [2, 17]: 60 to 74%; melting point: 160 to 162 °C |
| Nc1cc(-c2ccc(Cl)nc2Cl)nc(C(=O)O)c1Cl [Compound 1, 4-amino-2′,5,6′-trichloro-[2,3′-bipyridine]-6-carboxylic acid] | 30 to 44 | 75 to 84 | 95 to 100 | 95 to 100 | 85 to 94 | 95 to 100 | 85 to 94 | 95 to 100 | 0 to 29 | 0 to 29 | 75 to 84 | 85 to 94 | 0 to 29 | 30 to 44 | 0 to 29 | 0 to 29 | 0 to 29 | 0 to 29 | 0 to 29 | 0 to 29 | pest or weed control at 70 g/ha [2, 13]: 0 to 29%; pest or weed control at 140 g/ha [2, 13]: 0 to 29%; pest or weed control at 70 g/ha [2, 14]: 0 to 29%; pest or weed control at 140 g/ha [2, 14]: 0 to 29%; pest or weed control at 70 g/ha [2, 15]: 0 to 29%; pest or weed control at 140 g/ha [2, 15]: 0 to 29%; pest or weed control at 70 g/ha [2, 16]: 0 to 29%; pest or weed control at 140 g/ha [2, 16]: 0 to 29%; pest or weed control at 70 g/ha [2, 17]: 0 to 29%; pest or weed control at 140 g/ha [2, 17]: 0 to 29%; melting point: 184 °C (dec.) |
